Data: patent publication US6455761B1, “Agrobacterium-mediated transformation of turnip rape” (Helsinki University Licensing Ltd. Oy, priority 1997, dated 2002)

Tests used:
[1] = tested on: inflorescence stem segments of turnip rape plants; experiment: Effect of cultivation factors on transformation of inflorescence stem segments by Agrobacterium LBA4404pGPTV-KAN-GUSint (histological GUS assay); format: cell-based, Brassica rapa ssp. oleifera; conditions: for Average %: average of cultivars
[2] = tested on: explants of turnip rape
Protocol: (§1) Selection and regeneration. […] Thereafter the whole explants or cut callus pieces with the green nodules and primordia were transferred on hormone free MS medium, where nodules developed primordia and shoots. Silver nitrate in concentration 0-90 μM (0-15 mg/l) and porous paper tape for sealing of Petri dishes were used in transformation and regeneration of transgenic plants.
Shoot regeneration. Effects of different hormones on various explants of mature plants of turnip rape were tested in preliminary experiments to achieve sufficient shoot regeneration.
Silver nitrate application and aeration. The use of silver nitrate in in vitro cultivation of turnip rape has often been reported as an essential factor for shoot regeneration (Chi et al. 1990; Hachey et al. 1991; Mukhopadhuay et al. 1992; Radke et al. 1992). […] We have examined the effect of silver nitrate on regeneration capacity of explants of turnip rape.
Selection. To prevent Agrobacterium growth on the medium we used claforan (cefotaxim) 500 mg/l or carbenicillin 200 mg/l.

[3] = tested on: Agrobacterium; conditions: 5 mg/l (30 μM); MS medium during co-cultivation with plant explants
From the text: We have transformed inflorescence stem segments of turnip rape using different concentrations of silver nitrate and sealed plates with plant explants by parafilm or porous paper tape. Transformation efficiency was examined in histological GUS assay 4 days after co-cultivation. Transformation efficiency is shown in Table 4 as proportion of explants with blue inclusions in the calli per all explants (also in %).

[4] = tested on: turnip rape plants cv. Valtti and Sisu; experiment: Transgenic shoot regeneration under antibiotic selection
Protocol: as §1
Selection on kanamycin or hygromycin was applied immediately after co-cultivation of the explants with Agrobacteria, three days after beginning of the whole procedure. Antibiotics were used in concentrations 20-25 mg/l during all steps of regeneration and cultivation of transgenic plants.
Using nptII and hpt genes in transformation constructions provides the plants resistance to kanamycin and hygromycin, respectively. […] Because morfogenesis occurs mainly on the basal side of the stem segmets, explants are placed basal side down on the selection medium.
Turnip rape plants cv. Valtti and Sisu were transformed with LBA4404 pGPTV-KAN-GUSint and LBA4404 pGPTV-HPT-GUSint.
Analysis of transformation. Green regenerated shoots were checked for GUS activity. Leaves or leaf pieces were prepared for histological GUS assay as described above.

[5] = 100 μM AS added in MS medium during inoculation and cocultivation, cv. Sisu
[6] = 100 μM AS added in MS medium during inoculation and cocultivation, cv. Valtti
[7] = 100 μM AS in MS medium and Agrobacterium grown one night with 100 μM acetosyringone, cv. Sisu
[8] = 100 μM AS in MS medium and Agrobacterium grown one night with 100 μM acetosyringone, cv. Valtti
[9] = selection on 20 mg/l, cultivars Sisu and Valtti

`COc1cc(C(C)=O)cc(OC)c1O` [AS, 3,5-dimethoxy-4-hydroxyacetophenon] was tested, and the Average % ([1]; 100 μM AS added in MS medium during inoculation and cocultivation) was 41.6%, the “GUS +/all” value [1, 5] was 24/65 and the “GUS +/all %” value [1, 5] was 36.9%. The “GUS +/all” value [1, 6] was 36/78, the “GUS +/all %” value [1, 6] was 46.2% and the Average % ([1]; 100 μM AS in MS medium and Agrobacterium grown one night with 100 μM acetosyringone) was 46.6%. For the same compound, the “GUS +/all” value [1, 7] was 29/65, the “GUS +/all %” value [1, 7] was 44.6% and the “GUS +/all” value [1, 8] was 35/72. For the same compound, the “GUS +/all %” value [1, 8] was 48.6%.
`O=[N+]([O-])[O-].[Ag+]` [AgNO3, silver nitrate] was tested, and the Average % ([1]; 5 mg/l AgNO3) was 29.5%, the “GUS +/all %” value ([1]; 5 mg/l AgNO3, cv. Sisu) was 27.1% and the “GUS +/all” value ([1]; 5 mg/l AgNO3, cv. Sisu, 4 days after co-cultivation) was 19/70. The “GUS +/all” value ([1]; 5 mg/l AgNO3, cv. Valtti) was 14/37, the “GUS +/all %” value ([1]; 5 mg/l AgNO3, cv. Valtti) was 37.8% and the Average % ([1]; 10 mg/l AgNO3) was 37.6%. For the same compound, the “GUS +/all” value ([1]; 10 mg/l AgNO3, cv. Sisu) was 15/53, the “GUS +/all %” value ([1]; 10 mg/l AgNO3, cv. Sisu) was 28.3% and the “GUS +/all” value ([1]; 10 mg/l AgNO3, cv. Valtti) was 15/32. The “GUS +/all %” value ([1]; 10 mg/l AgNO3, cv. Valtti) was 46.9%, the Average % ([1]; 15 mg/l AgNO3) was 37.6% and the “GUS +/all” value ([1]; 15 mg/l AgNO3, cv. Sisu) was 17/40. The “GUS +/all %” value ([1]; 15 mg/l AgNO3, cv. Sisu) was 42.5%, the “GUS +/all” value ([1]; 15 mg/l AgNO3, cv. Valtti) was 14/43 and the “GUS +/all %” value ([1]; 15 mg/l AgNO3, cv. Valtti) was 32.6%. For the same compound, the effect on transformation ([1]; silver nitrate in the cultivation medium) was “does not have a negative effect on transformation”, the “Shoot regeneration optimum concentration” value [2] was 5 to 10 mg/L and the “effect of high concentrations on cultivated calli” value [2] was “browning and partial necrosis of cultivated calli”. For the same compound, the “effect on Agrobacterium growth” value [3] was “suppresses Agrobacterium growth”.
In the case of `CO/N=C(\C(=O)N[C@@H]1C(=O)N2C(C(=O)O)=C(COC(C)=O)CS[C@H]12)c1csc(N)n1` [Claforan, cefotaxim], the “recovering of transgenic shoots after inoculation with Agrobacteria” value ([4]; claforan used to prevent Agrobacterium growth) is reported as “full block of recovering of transgenic shoots” and the “decrease of shoot regeneration frequency compared to carbenicillin” value ([2]; claforan 500 mg/l vs carbenicillin 200 mg/l, data not shown) is reported as 2-5 times.
`O=C(O)Cc1c[nH]c2ccccc12` [IAA, indole-3-acetic acid] was tested, and the “effect on shoot regeneration relative to BAP and NAA” value ([2]; data not shown) was “less effective than BAP and NAA”.
In the case of `NC[C@H]1O[C@H](O[C@H]2[C@H](O)[C@@H](O[C@H]3O[C@H](CO)[C@@H](O)[C@H](N)[C@H]3O)[C@H](N)C[C@@H]2N)[C@H](O)[C@@H](O)[C@@H]1O` [Kanamycin], the escape proportion ([4]; selection of transgenic shoots) is reported as 80-90%, the “Escapes per green shoots” value [4, 9] is reported as 52/59 and the “Escapes per green shoots %” value [4, 9] is reported as 88%. The “GUS positive per all explants” value [4, 9] was 7/182, the “GUS positive per all explants %” value [4, 9] was 4% and the “Green shoots per all explants” value [4, 9] was 59/182. For the same compound, the “Green shoots per all explants %” value [4, 9] was 32%.
With `CC1(C)S[C@@H]2[C@H](NC(=O)C(C(=O)O)c3ccccc3)C(=O)N2[C@H]1C(=O)O` (some centres unmarked) [carbenicillin] the effect on regeneration ([2]; 200 mg/l, data not shown) was “does not have an apparent negative effect on regeneration”.
With `c1coc(CNc2ncnc3[nH]cnc23)c1` [kinetin] the “effect on shoot regeneration relative to BAP and NAA” value ([2]; data not shown) was “less effective than BAP and NAA”.
